Assays:
Type in all cases: physicochemical
[1] = Cumulative in vitro dissolution of felodipine and metoprolol (Example 1 tablet), USP dissolution apparatus No. 2, 50 rpm, pH 6.5 with 1% sodium dodecylsulphate; conditions: pH 6.5, 1% sodium dodecylsulphate
Method: Cumulative in vitro dissolution of felodipine and metoprolol in
a phosphate buffer of pH 6.5 with 1% sodium dodecylsulphate.
Method: USP dissolution apparatus No. 2, 50 rpm.

[2] = Cumulative in vitro dissolution of metoprolol (Reference example B tablet), USP dissolution apparatus No. 2, 50 rpm, phosphate buffer pH 6.8; conditions: phosphate buffer pH 6.8, 50 rpm
Description: The dissolution rate in vitro from this tablet is shown in Table 3. |Cumulative in vitro dissolution of metoprolol in a phosphate buffer |pH 6.8. |Method: […]

[3] = Cumulative in vitro dissolution of nifedipine and metoprolol (Example 2 tablet), USP dissolution apparatus No. 2, 100 rpm, pH 6.5 with 1% sodium dodecylsulphate; conditions: pH 6.5, 1% sodium dodecylsulphate

| Structure (SMILES) | Percent released over time (h) ([1]; 0 h) | Percent released over time (h) ([1]; 2 h) | Percent released over time (h) ([1]; 4 h) | Percent released over time (h) ([1]; 8 h) | Percent released over time (h) ([1]; 12 h) | Percent released over time (h) ([1]; 16 h) | Percent released over time (h) ([1]; 20 h) | Percent released over time (h) ([2]; 0 h) | Percent released over time (h) ([2]; 1 h) | Percent released over time (h) ([2]; 4 h) | Percent released over time (h) ([2]; 8 h) | Percent released over time (h) ([2]; 12 h) | Percent released over time (h) ([2]; 20 h) | Percent released over time (h) ([3]; 0 h) | Percent released over time (h) ([3]; 2 h) | Percent released over time (h) ([3]; 4 h) | Percent released over time (h) ([3]; 8 h) | Percent released over time (h) ([3]; 12 h) | Percent released over time (h) ([3]; 16 h) | Percent released over time (h) ([3]; 20 h) |
| --- | --- | --- | --- | --- | --- | --- | --- | --- | --- | --- | --- | --- | --- | --- | --- | --- | --- | --- | --- | --- |
| CCOC(=O)C1=C(C)NC(C)=C(C(=O)OC)C1c1cccc(Cl)c1Cl (stereo not drawn) [felodipine, 4-(2,3-dichlorophenyl)-1,4-dihydro-2,6-dimethyl-3,5-pyridinedicarboxylic acid ethyl methyl ester] | 0% | 14% | 32% | 64% | 88% | 96% | 98% | – | – | – | – | – | – | – | – | – | – | – | – | – |
| COCCc1ccc(OCC(O)CNC(C)C)cc1 (stereo not drawn) [metoprolol] | 0% | 5% | 16% | 39% | 65% | 86% | 95% | 0% | 23% | 59% | 86% | 99% | 100% | 0% | 6% | 16% | 34% | 50% | 62% | 75% |

Reference: US4942040A, “Pharmaceutical preparation and a process for its preparation” (priority 1987, dated 1990)
